This is an account of results in patent publication US9040693B2, “Fused heterocyclic derivative, medicinal composition containing the same, and medicinal use thereof” (KISSEI PHARMACEUTICAL CO., LTD., priority 2005, dated 2015).

Usually bioavailability stands for dose-corrected exposure relative to a reference, in per cent. A high value points to good availability.

Data set [1] deals with human GnRH receptor1 (GnRHR1) (Homo sapiens (Human), UniProt P30968). The data set is described as follows: Assay of GnRH antagonizing effect: inhibition of GnRH-stimulated intracellular calcium flux in HEK293 cells transiently expressing human GnRHR1. As to conditions: 5 nM GnRH, FLIPR calcium dye, read-out: IC50 (drug concentration at which 50% GnRH-stimulated intracellular calcium flux was inhibited). It is filed as cell-based. The text has this:
1) Cloning and Construction of the Vector Expressing Human GnRH Receptor1 (GnRHR1)
Using cDNA deprived from human pituitary (BECTON DICKINSON) as a template, the DNA fragment coding 45 to 1115 bp of human GnRHR1 (Accession No. L03380), which was reported by Kakar et al., was amplified by PCR method and inserted into the multi-cloning site of pcDNA3.1(+) (Invitrogen). The DNA sequence inserted was perfectly matched to the previously reported sequence.
2) Preparation of HEK293 (Human Embryonic Kidney) Cells Expressing Human GnRH Receptor1
The expression vector introduced human GnRHR1 gene was transfected into cultured HEK293 cells (medium : MEM, 10% FCS, containing antibiotics, non-essential amino acids and pyruvic acid) by means of lipofection with the use of Lipofectamine2000 (Invitrogen). After transfection, the cells were cultured for 2 days, and used for examinations.
3) Assay of GnRH Antagonizing Effect
Antagonizing effect of compounds for human GnRHR1 was evaluated by change of calcium levels in GnRH-stimulated cells. After removing the culture medium of HEK293 cells transiently expressing human GnRHR1, cells were washed with 200 μL piper well of the washing buffer (Hank's Balanced Salt Solutions, 20 mM N-2-hydroxyethylpiperazine-N′-2-ethanesulfonic acid, 1.3 mM calcium chloride, 0.5 mM magnesium chloride, 0.4 mM magnesium sulfate). One hundred μL of the Ca^2+sensitive dye solution (FLIPR Calcium Assay Kit (Molecular Devices)) was added to the well, and the cells were incubated for 1 hour at 37° C., 5% CO2. Then, intracellular calcium levels were determined under the following condition by using FLEX STATION (Molecular Devices). In the equipment, which was warmed to 37° C., 50 μL of test compound diluted with the measurement buffer (the washing buffer with 0.1% Albumin bovine serum) was added to the well. After 1 minute, 50 μL of 5 nM GnRH was added to the well. The drug concentration, at which 50% GnRH-stimulated intracellular calcium flux was inhibited (IC50 value), was calculated using logit plot (Table 108).
On the technique in general: Calcium flux is commonly read through the fluorescence of an indicator in the cells.

Data set [2] in a line: Assay for oral absorbability: plasma drug concentration in rats after intravenous (1 mg/kg) and oral (3 mg/kg) administration (Cmax, bioavailability, C360). It is filed as in vivo. As to conditions: SD rats; for blood concentration 6 hours after oral administration, sustainability (in words) / availability by oral administration (in words): oral 3 mg/kg; for blood concentration 6 hours after oral administration, sustainability (in words): 360 minutes, compared with Control compounds 1 and 2; for availability by oral administration (in words): compared with the compounds of Example 22 (sulfonamide) and Example 95 (amide); for Cmax / bioavailability: male, rat, plasma; for Cmax / C360 (plasma drug concentration at 360 minutes after administration): oral administration, 3 mg/kg; for Cmax: read-out: Cmax (maximum plasma drug concentration); for C360 (plasma drug concentration at 360 minutes after administration): class symbols; for bioavailability: oral 3 mg/kg vs intravenous 1 mg/kg. The procedure:
Assay for Oral Absorbability
1) Preparation of the Samples for Measurement of the Drug Concentration After Intravenous Injection to the Tail Vein
As experimental animal, overnight fasted SD rats (Charles River, male, 7 weeks of age, 170-210 g) were used. One mg of a test compound was dissolved by adding 0.2 mL of N,N-dimethylacetoamide, 0.798 mL of saline and 0.002 mL of 2N NaOH, and then 1.0 mg/mL solution was prepared. The body weights of rats were measured, and the solution of the test compound was injected intravenously to the tail vein of unanesthetized rats at the dose of 1 mL/kg (1 mg/kg). The intravenous injection to the tail vein was performed with 26 G injection needle and 1 mL syringe. The sampling times for collection of blood were 2, 15, 60, 120, 240 and 360 minutes after the intravenous injection to the tail vein. The blood was centrifuged, and the plasma was used as the sample for measurement of the drug concentration in blood.
2) Preparation of the Samples for Measurement of the Drug Concentration After Oral Administration
As experimental animal, overnight fasted SD rats (Charles River, male, 7 weeks of age, 170-210 g) were used. Three mg of a test compound was dissolved by adding 0.2 mL of N,N-dimethylacetoamide, 9.794 mL of 0.5% aqueous sodium methylcellulose solution and 0.006 mL of 2N NaOH, and then 0.3 mg/mL solution was prepared. The body weights of rats were measured, and the solution of the test compound was administered orally at the dose of 10 mL/kg (3 mg/kg). The oral administration was performed with gastric tube for rat and 2.5 mL syringe. The sampling times for collection of blood were 15, 30, 60, 120, 240 and 360 minutes after the oral administration. The blood was centrifuged, and the plasma was used as the sample for measurement of the drug concentration in blood.
3) Measurement of the Drug Concentration
To 0.025 mL of the plasma obtained in 1) and 2) described above, 0.1 mL of an adequate internal standard material was added according to the usual method, and then deproteinization was performed by adding 0.875 mL of acetonitrile. After centrifugation, 0.005 mL of the supernatant was injected into LC-MS/MS. The drug concentration in plasma was measured by LC-MS/MS method under the conditions as follows. To 0.05 mL of the blank plasma were added the internal standard material and various test compounds adequately according to the usual method, similar operating described above was done, and then the standard curves were prepared.
Each area under the plasma drug concentration-time curve by intravenous injection to the tail vein and oral administration of the test compound was estimated with WinNonlin Professional by Pharsight Corporation from the plasma drug concentration at each time obtained from the above mentioned method, and then the bioavailability (%) was calculated based on the following formula.
Bioavailability (%)={[(Area under the plasma drug concentration-time curve by oral administration)/3]/(area under the plasma drug concentration -time curve by intravenous injection to the tail vein)}×100
In the oral administration, the maximum plasma drug concentration (Cmax), bioavailability and the plasma drug concentration at 360 minutes after administration (C360) are shown in Tables 110 to 112.

human GnRH receptor1 (GnRHR1), sequence (P30968 whole entry): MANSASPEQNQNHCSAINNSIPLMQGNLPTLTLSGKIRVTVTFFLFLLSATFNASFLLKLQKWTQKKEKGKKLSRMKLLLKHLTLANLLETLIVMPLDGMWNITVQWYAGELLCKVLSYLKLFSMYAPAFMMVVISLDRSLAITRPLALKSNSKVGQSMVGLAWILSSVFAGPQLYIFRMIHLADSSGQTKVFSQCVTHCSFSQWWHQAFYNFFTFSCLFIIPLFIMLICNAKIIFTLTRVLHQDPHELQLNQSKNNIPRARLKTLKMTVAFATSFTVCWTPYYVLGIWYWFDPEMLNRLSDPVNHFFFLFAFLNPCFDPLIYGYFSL

`Cc1cccc(N(C)S(=O)(=O)c2ccc(Cl)c(-n3c(=O)[nH]c4sccc4c3=O)c2)c1` [Example 17]: in data set [1], the IC50 was 101 nM.
Consider `CC(C)(c1ccccc1)S(=O)(=O)c1ccc(F)c(-n2c(=O)[nH]c3csc(C(=O)O)c3c2=O)c1` [Example 202, 5-Carboxy-3-[2-fluoro-5-(1-methyl-1-phenylethylsulfonyl) -phenyl]thieno[3,4-d]pyrimidine-2,4(1H,3H)-dione], for which, in data set [2], the “blood concentration 6 hours after oral administration, sustainability (in words)” value (from here on “blood concentration 6 hours”) was “maintain their blood concentrations 6 hours after the oral administrations”; the “availability by oral administration (in words)” value (“availability … (in words)” below) was “more excellent availability”; the Cmax worked out at 1310 ng/mL; the “C360 (plasma drug concentration at 360 minutes after administration)” value is recorded as “B (B: 300 ng/mL to 1000 ng/mL)”. Moreover, the IC50 in data set [1] came to 20 nM.
`CN(C(=O)c1ccc(Cl)c(-n2c(=O)[nH]c3csc(C(=O)O)c3c2=O)c1)c1ccccc1` [Example 95]: the Cmax in data set [2] came out at 322 ng/mL. Besides, in data set [1], the IC50 amounted to 19 nM.
Regarding `COc1cc(F)c(-n2c(=O)[nH]c3csc(C(=O)O)c3c2=O)cc1CN(C)c1c(F)cccc1F` [Example 420], in data set [2], the “blood concentration 6 hours” value was “maintain their blood concentrations 6 hours after the oral administrations”; the “availability … (in words)” value is “more excellent availability”; the Cmax is 15200 ng/mL; the “C360 (plasma drug concentration at 360 minutes after administration)” value was “B (B: 300 ng/mL to 1000 ng/mL)”. Moreover, the IC50 in data set [1] amounted to 29 nM.
As to `Cc1ccccc1COc1ccc(Cl)c(-n2c(=O)[nH]c3csc(C(=O)O)c3c2=O)c1` [Example 25], the IC50 in data set [1] was determined as 85 nM.
Turning to `CC(C)(Oc1ccc(Cl)c(-n2c(=O)[nH]c3csc(C(=O)O)c3c2=O)c1)c1ccccc1` [Example 271], in data set [2], the “blood concentration 6 hours” value is “maintain their blood concentrations 6 hours after the oral administrations”; the “availability … (in words)” value was “more excellent availability”; the Cmax amounted to 17600 ng/mL; the “C360 (plasma drug concentration at 360 minutes after administration)” value is reported as “A (A: >1000 ng/mL)”.
`O=c1[nH]c2sccc2c(=O)n1-c1cc(S(=O)(=O)N2CCCc3ccccc32)ccc1Cl` [Example 3]: the IC50 in data set [1] stood at 80 nM.
Consider `COc1ccc(F)cc1C(C)(C)Sc1ccc(F)c(-n2c(=O)[nH]c3csc(C(=O)O)c3c2=O)c1` [Example 191], for which, in data set [2], the “availability … (in words)” value was “more excellent availability” and the Cmax is 13500 ng/mL. In addition, the IC50 in data set [1] amounted to 17 nM.
For `CC(C)(C(=O)c1ccc(Cl)c(-n2c(=O)[nH]c3csc(C(=O)O)c3c2=O)c1)c1ccccc1` [Example 146], in data set [2], the “blood concentration 6 hours” value is given as “maintain their blood concentrations 6 hours after the oral administrations”; the “availability … (in words)” value is “more excellent availability”; the Cmax was 17900 ng/mL; the “C360 (plasma drug concentration at 360 minutes after administration)” value is “A (A: >1000 ng/mL)”. Moreover, the IC50 in data set [1] is 10 nM.
Taken in the same sequence, the figures for `COCCOc1ccc(F)c(F)c1COc1ccc(F)c(-n2c(=O)[nH]c3csc(C(=O)O)c3c2=O)c1` [Example 367] were “maintain their blood concentrations 6 hours after the oral administrations”, “more excellent availability”, 14100 ng/mL, “A (A: >1000 ng/mL)” and 15 nM.
`COc1cccc(F)c1C(C)Oc1ccc(F)c(-n2c(=O)[nH]c3csc(C(=O)O)c3c2=O)c1` (stereo not drawn) [Example 48, 5-Carboxy-3-{2-fluoro-5-[1-(2-fluoro-6-methoxyphenyl) -ethoxy]phenyl}[3,4-d]pyrimidine-2,4(1H,3H)-dione]: in data set [2], the “availability … (in words)” value is recorded as “more excellent availability”, the bioavailability amounted to 65% and the Cmax was 14500 ng/mL. Besides, in data set [1], the IC50 stood at 29 nM.
For the compound `O=c1[nH]c2ccsc2c(=O)n1-c1cc(S(=O)(=O)N2CCCc3ccccc32)ccc1Cl` [Example 2], the IC50 in data set [1] came to 199 nM.
Take `COc1cc(F)c(-n2c(=O)[nH]c3csc(C(=O)O)c3c2=O)cc1COc1c(OC)ccc(F)c1F` [Example 414]: in data set [2], the “blood concentration 6 hours” value is on record as “maintain their blood concentrations 6 hours after the oral administrations”; the “availability … (in words)” value is on record as “more excellent availability”; the Cmax stood at 25600 ng/mL; the “C360 (plasma drug concentration at 360 minutes after administration)” value is “A (A: >1000 ng/mL)”. Also, the IC50 in data set [1] came out at 42 nM.
For `CNC(=O)c1scc2[nH]c(=O)n(-c3cc(S(=O)(=O)N4CCCc5ccccc54)ccc3Cl)c(=O)c12` [Example 31, 5-Methylcarbamoyl-3-[2-chloro-5-(3,4-dihydroquinolin-1(2H) -ylsulfonyl)phenyl]thieno[3,4-d]pyrimidine-2,4(1H,3H)-dione], the IC50 in data set [1] was 272 nM.
Consider `O=C(O)c1scc2[nH]c(=O)n(-c3cc(S(=O)(=O)N4CCCc5ccccc54)ccc3Cl)c(=O)c12` [Example 22, 5-Carboxy-3-[2-chloro-5-(3,4-dihydroquinolin-1(2H)-yl-sulfonyl)phenyl]thieno[3,4-d]pyrimidine-2,4(1H,3H)-dione], for which, in data set [2], the bioavailability was 11% and the Cmax turned out to be 342 ng/mL. Besides, the IC50 in data set [1] is 2 nM.
On to `COc1cc(F)c(-n2c(=O)[nH]c3csc(C(=O)O)c3c2=O)cc1OCc1c(OC)ccc(F)c1F` [Example 233, 5-Carboxy-3-[2-fluoro-5-(2,3-difluoro-6-methoxybenzyloxy) -4-methoxyphenyl]thieno[3,4-d]pyrimidine-2,4(1H,3H)-dione], for which, in data set [2], the “blood concentration 6 hours” value is “maintain their blood concentrations 6 hours after the oral administrations”; the “availability … (in words)” value is “more excellent availability”; the Cmax was determined as 25000 ng/mL; the “C360 (plasma drug concentration at 360 minutes after administration)” value is given as “A (A: >1000 ng/mL)”. In addition, the IC50 in data set [1] amounted to 15 nM.
